Publication PMC3566858 (Beilstein Journal of Organic Chemistry, 2013)
Marks after values point to notes of the source that are not given here.

How the values were obtained:
[1] = test system: T. cruzi parasites in J774 macrophage host cells; assay: Minimum trypanocidal concentration (MTC) assay; format: cell-based, Trypanosoma cruzi
[2] = test system: T. cruzi parasites in C2C12 host cells; assay: High-content imaging-based screening (HCS) assay; format: cell-based; details: Trypanosoma cruzi; reduces parasite load in C2C12 cells by 90% relative to untreated controls; read-out: T. cruzi growth inhibition HCS EC90
[3] = biological target: cruzain (Trypanosoma cruzi, UniProt P25779); assay: biochemical; details: for IC50: kinact/Ki, read-out: cruzain activity (n.a. = not active)
cruzain, sequence (P25779 123-337 limits assumed): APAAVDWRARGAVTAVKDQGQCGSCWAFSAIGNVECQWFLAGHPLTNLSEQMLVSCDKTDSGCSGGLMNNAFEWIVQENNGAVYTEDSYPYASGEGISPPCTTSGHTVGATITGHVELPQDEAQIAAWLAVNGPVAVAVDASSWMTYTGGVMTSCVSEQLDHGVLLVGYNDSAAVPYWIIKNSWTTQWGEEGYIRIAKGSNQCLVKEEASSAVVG

[4] = biological target: T1, ≈35 kDa host-cell protein (cathepsin B) (Mus musculus, UniProt P10605); assay: Competitive labeling of host cell (C2C12) proteins with probe 9; format: cell-based; details: C2C12 cells
T1 construct: endogenous in cells; host or cells: C2C12 mouse myoblasts
T1 sequence (P10605 80-333 limits assumed): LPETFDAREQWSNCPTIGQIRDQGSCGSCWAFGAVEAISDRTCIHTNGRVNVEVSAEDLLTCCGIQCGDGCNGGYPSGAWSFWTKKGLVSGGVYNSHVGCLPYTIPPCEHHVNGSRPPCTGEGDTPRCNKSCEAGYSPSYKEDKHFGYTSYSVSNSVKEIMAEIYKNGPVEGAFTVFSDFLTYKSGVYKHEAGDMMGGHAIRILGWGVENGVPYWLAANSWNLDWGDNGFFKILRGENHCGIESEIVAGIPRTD
Method: The discovery of a potential mammalian off-target of probe 9 (and presumably also of 1) was of considerable interest, so we explored this finding further. To determine if this protein was also a target of 1 and 4, we conducted competition experiments in C2C12 cells. […]
Cellular labeling assay and “click” chemistry: C2C12 cells (1.5 × 10^6 cells) were pre-treated with competitor compounds in culture media (1 mL, DMEM with 10% FBS) for 1 hour at 37 °C.
Then additional competitor compound and 9 (2 µM) were added in culture media (1 mL), and the cells were incubated for an additional hour. The cells were then pelleted, washed with phosphate-buffered saline pH 7.4 (2 × 1 mL), and lysed with 1% SDS in phosphate-buffered saline (400 µL). The denatured lysates were sonicated to reduce viscosity, centrifuged to give pellets of the insoluble material, and normalized for total protein content. The normalized lysates (22 µL, 3 mg/mL) were mixed with TAMRA azide 10 (0.5 µL, 5 mM), TCEP (0.5 µL, 50 mM, pH ~7.0), TBTA ligand in 1:4 DMSO/t-butyl alcohol (1.5 µL, 1 mM), and CuSO4 (0.5 µL, 50 mM).
Reactions were incubated at room temperature for one hour and then resolved by SDS-PAGE.
The resulting gel was scanned for fluorescence (Typhoon Imaging System, Molecular Dynamics) and coomassie stained. […]

[5] = biological target: TcCYP51 (Trypanosoma cruzi, UniProt Q7Z1V1); assay: biochemical; details: UV-vis binding assay; lower limit of KD ~5 nM; read-out: TcCYP51 activity in vitro KD
TcCYP51, sequence (Q7Z1V1 whole entry): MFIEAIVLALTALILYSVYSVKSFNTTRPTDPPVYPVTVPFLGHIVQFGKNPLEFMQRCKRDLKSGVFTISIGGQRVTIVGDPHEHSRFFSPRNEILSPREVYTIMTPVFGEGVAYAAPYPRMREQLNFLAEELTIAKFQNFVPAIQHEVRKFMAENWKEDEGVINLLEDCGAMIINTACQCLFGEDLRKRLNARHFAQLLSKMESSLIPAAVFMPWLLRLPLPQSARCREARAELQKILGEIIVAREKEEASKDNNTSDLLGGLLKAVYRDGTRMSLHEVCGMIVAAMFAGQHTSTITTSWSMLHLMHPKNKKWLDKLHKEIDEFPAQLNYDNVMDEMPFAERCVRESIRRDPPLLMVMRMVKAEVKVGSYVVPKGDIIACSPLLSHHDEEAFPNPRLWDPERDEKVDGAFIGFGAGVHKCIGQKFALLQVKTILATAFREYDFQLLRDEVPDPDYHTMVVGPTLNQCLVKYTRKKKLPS

[6] = test system: TcCYP51 (ergosterol biosynthesis) in intracellular T. cruzi parasites; assay: Ergosterol biosynthesis / sterol composition of intracellular T. cruzi by GC/MS; format: cell-based, Trypanosoma cruzi; design: key to TcCYP51 cellular activity (Y/N): Y: Compound affects ergosterol biosynthesis at indicated concentration as determined by GC/MS analysis; cellular activity (Y/N, conc.); details: for effect on sterol (lipid) composition of intracellular T. cruzi: concentrations below MTC
[7] = clears J774 host cells of parasites at day 40, following 28 days of treatment
[8] = affects ergosterol biosynthesis at 2.0 μM
[9] = pre-incubation at either 1 μM or 10 μM for one hour
[10] = affects ergosterol biosynthesis at 0.1 μM

O=C(Cn1ccnc1[N+](=O)[O-])NCc1ccccc1 [BNZ, benzindazole, reference compound]
T. cruzi growth inhibition MTC [1, 7]: 10 µM
EC90 [2]: 7200 nM

O=C(N[C@@H](Cc1ccccc1)C(=O)N[C@H](/C=C/S(=O)(=O)c1ccccc1)CCc1ccccc1)c1ccccn1 [Compound 2]
kinact/KI [3]: 120000 M⁻¹ s⁻¹
T. cruzi growth inhibition MTC [1, 7]: 10 µM

Cc1ccc(C[C@H](NC(=O)c2ccccn2)C(=O)N[C@H](/C=C/S(=O)(=O)c2ccccc2)CCc2ccccc2)cc1.O=C(O)C(F)(F)F [Compound 3]
kinact/KI [3]: 16000 M⁻¹ s⁻¹
competition for labeling of the ≈35 kDa band by probe 9 ([4]; pretreatment with 10 μM for one hour): successfully blocked labeling
Kd [5]: > 2000 nM
T. cruzi growth inhibition MTC [1, 7]: 8 µM
EC90 [2]: 1850 nM
TcCYP51 cellular activity (Y/N) [6, 8]: N (2.0 μM)
effect on sterol (lipid) composition of intracellular T. cruzi [6]: no significant change in lipid composition

CC1CCC(C(=O)N[C@H](Cc2c[nH]c3ccccc23)C(=O)Nc2ccncc2)CC1 (some centres unmarked) [Compound 5, reference compound]
T. cruzi growth inhibition MTC [1, 7]: ≤10^d μM
TcCYP51 cellular activity (Y/N) ([6]; affects ergosterol biosynthesis at 5.0 μM): Y (5.0 μM)

CN1CCN(C(=O)N[C@@H](Cc2ccccc2)C(=O)N[C@@H](CCc2ccccc2)CCS(=O)(=O)c2ccccc2)CC1 [Compound 6]
IC50 [3]: > 50 µM
competition for labeling of the ≈35 kDa band by probe 9 [4, 9]: did not compete for labeling by 9
Kd [5]: > 2000 nM
T. cruzi growth inhibition MTC [1, 7]: >10 µM
EC90 [2]: > 10000 nM
TcCYP51 cellular activity (Y/N) [6, 8]: N (2.0 μM)
effect on sterol (lipid) composition of intracellular T. cruzi [6]: no significant change in lipid composition

Cc1ccc(C[C@H](NC(=O)c2ccccn2)C(=O)N[C@@H](CCc2ccccc2)CCS(=O)(=O)c2ccccc2)cc1 [Compound 7]
IC50 [3]: > 50 µM
Kd [5]: > 2000 nM
T. cruzi growth inhibition MTC [1, 7]: >10 µM
EC90 [2]: > 10000 nM
TcCYP51 cellular activity (Y/N) [6, 10]: N (0.1 μM)
effect on sterol (lipid) composition of intracellular T. cruzi [6]: no significant change in lipid composition

Cc1ccc(C[C@H](NC(=O)c2ccncc2)C(=O)N[C@@H](CCc2ccccc2)CCS(=O)(=O)c2ccccc2)cc1 [Compound 8]
IC50 [3]: > 50 µM
competition for labeling of the ≈35 kDa band by probe 9 [4, 9]: did not compete for labeling by 9
Kd [5]: ≤ 5 nM
T. cruzi growth inhibition MTC [1, 7]: 0.25 µM
times more potent than 4 in the MTC assay ([1]; relative to compound 4): 2–4 times
EC90 [2]: 110 nM
TcCYP51 cellular activity (Y/N) [6, 10]: Y (0.1 μM)
effect on sterol (lipid) composition of intracellular T. cruzi [6]: effects very similar to those observed in posaconazole treated parasites

C#CCN1CCN(C(=O)N[C@@H](Cc2ccccc2)C(=O)N[C@H](/C=C/S(=O)(=O)c2ccccc2)CCc2ccccc2)CC1 [Compound 9]
kinact/KI [3]: 81500 M⁻¹ s⁻¹
T. cruzi growth inhibition MTC ([1]; performed in BESM host cell rather than J774 cells): 5^e μM
EC90 [2]: 17 nM

CNC(=O)[C@H](Cc1ccc(C)cc1)NC(=O)c1ccncc1 [Compound 12]
IC50 [3]: > 50 µM
Kd [5]: 620 ± 260 nM
T. cruzi growth inhibition MTC [1, 7]: >10 µM
antitrypanosomal effect ([1]; highest concentration examined (10 μM)): no antitrypanosomal effect
EC90 [2]: > 10000 nM

Cc1ccc(C[C@H](NC(=O)c2ccncc2)C(=O)N[C@H](C)c2ccccc2)cc1 [Compound 13]
IC50 [3]: > 50 µM
Kd [5]: 75 ± 26 nM
T. cruzi growth inhibition MTC ([1]; read at day 12 following 7 days treatment): 1^f μM
EC90 [2]: 3900 nM

CC[C@@H]([C@H](C)O)n1ncn(-c2ccc(N3CCN(c4ccc(OC[C@@H]5CO[C@@](Cn6cncn6)(c6ccc(F)cc6F)C5)cc4)CC3)cc2)c1=O [POSA, posaconazole, reference compound]
T. cruzi growth inhibition MTC [1, 7]: 0.003 µM
EC90 [2]: 2700 nM
TcCYP51 cellular activity (Y/N) [6, 10]: Y (0.1 μM)
effect on sterol (lipid) composition of intracellular T. cruzi [6]: increase in the relative abundance of TcCYP51 substrates lanosterol (f) and eburicol (h)
